Laboratory results published in patent US6495673B1, “Method for isolating the DNA encoding an enzyme” (Medical Research Council, priority 1996, dated 2002).
No end group written: not given here. *: point of attachment. Biotin = O=C1N[C@H]2[C@H](CS[C@H]2CCCCC(=O)*)N1

Columns and labels:
[1] = test system: LUCK+ peptide substrate / GST-SH2 fusion; assay: Selection of lck tyrosine kinase phage by capture of phosphorylated peptide on GST-SH2; format: biochemical, murine; settings: LUCK- peptide instead of LUCK+, all three phages
Experimental: As affinity capture reagent a GST-fusion of the N-terminal SH2 domain of PI 3-kinase was used, subcloned in pGEX vector (Pharmacia) and affinity-purified on glutathione agarose. The GST-SH2 fusion was coated on Nunc Immunotubes (4 ml; 100 μg/ml in PBS) at room temperature overnight. The tubes were then washed and incubated for 2 hours with 3% BSA in phosphorylation buffer (30 mM HEPES, pH 7.4, 150 mM NaCl, 12 mM MgCl2, 1 mM sodium vanadate, 1 mM CaCl2).
ATP was then added to a final concentration of 100 μM. After one minute, the mixtures were loaded onto separate GST-SH2-coated immunotubes and incubated for 30 minutes. The tubes were then washed 10 times with TBS +1 mM CaCl2 (TBSC) +0.1% Tween-20 and 10 times with TBSC. The phage bound to the tube via the phosphorylated peptide was specifically eluted with 1 ml 10 mM EGTA in PBS (Neri et al., 1995) that causes dissociation of the peptide ligand from calmodulin present in the fusion protein presented on the phage.
The eluted phage was used to infect exponentially growing TG1 E. coli cells according to standard procedures (Nissim et al., 1994), then plated on selective ampicillin-glucose-TY plates. Ampicillin-resistant transformants were counted and used to calculate the titre of the phage recovered in the selection procedure.

[2] = molecular target: T1, calmodulin-tagged phage DN323 (Homo sapiens, UniProt P0DP23); assay: Stability of (calmodulin-tagged phage)/peptide complex to PEG precipitation, ELISA; format: binding; settings: 20% PEG 6000 + 2.5M NaCl, 1 hour on ice
T1 construct: made in house; host or cells: E. coli (phage production)
Experimental: Stability of (calmodulin-tagged phage)/peptide complexes to PEG precipitation was checked as follows. A 10^−8M solution (final concentration) of a biotinylated calmodulin-binding peptide […] was added to 1 ml of calmodulin-tagged phage (10^12 transforming unit/ml) in TBSC and incubated for 10 minutes. To this solution, 20% polyethyleneglycol (Mw6000) +2.5M NaCl was added (200 μl ) and the resulting mixture was incubated on ice for 1 hour, then centrifuged on a bench centrifuge (13,000 rpm; 5 minutes).
The pellet was resuspended in 1 ml of TBSC. The titre of the phage solutions before and after PEG precipitation were then determined. The fraction of phage particles that were still peptide-bound after the PEG precipitation procedure was evaluated by ELISA, using a streptavidin-coated plate (see above).
The difference in ELISA binding activity between the sample before (1) and after (2) PEG precipitation corresponds to a small loss in phage titre, as determined by E. coli infection and titration. In sample 3, 2% milk in TBSC was used instead of phage.

[3] = molecular target: T1, calmodulin-tagged phage DN323; assay: Competition assay of (calmodulin-tagged phage)/(biotin-peptide) complex with 1000-fold excess unlabeled peptide, ELISA; format: binding; settings: 1000-fold molar excess of non-biotinylated peptide
Experimental: A 10^−8 M solution of a biotinylated calmodulin-binding peptide ([…] or […]; Montigiani et al., 1996) was added to calmodulin-tagged phage preparations (10^12 transforming units/ml) in TBSC and incubated for 10 minutes. To the resulting mixture, aliquoted in different tubes, unlabeled […] peptide in 1000-fold molar excess (10^−5 M) was added at different times. The fraction of phage particles in which the biotinylated peptide had been replaced by the unlabeled peptide was then determined by ELISA as described above.
The results of a competition assay of (calmodulin-tagged phage DN323)/(biotin-peptide) complex with a 1000-fold molar excess of non-biotinylated calmodulin-binding peptide, detected by ELISA are illustrated in FIG. 5. Squares: […]; circles, CAAARAXKNFIAVSAANRFKKIS.

calmodulin = calmodulin (Homo sapiens, UniProt P0DP23); settings: cited from earlier work

For EPQFEEIGAARWKKAFIAVSNMFKKIS [LUCK-], the phage titres recovered [1] was “low phage titres”.

For Biotin-CAAARWKKAFIAVSAANRFKKIS, the “stability of calmodulin/peptide complex upon PEG precipitation” value [2] was “stable even after PEG precipitation”.

For CAAARWKKAFIAVSAANRFKKIS, the koff [3] is listed as < 10^−1 s^−1, the “time for which complex with calmodulin-tagged phage is stable” value [3] is listed as “more than 2 hours” and the Kd (calmodulin) is listed as 2.2 pM.
